# According to publication PMC10626578, “Designed switch from covalent to non-covalent inhibitors of carboxylesterase Notum activity” (European Journal of Medicinal Chemistry, 2023):
# Where a name gives a salt, the structure may show the parent alone. Read-outs that look alike come from different tables or passages of the source.
# How the values were obtained:
# [1] = biological target: T1, Notum (core, 81–451C330S) (Homo sapiens, UniProt Q6P988, C330S); assay: Notum-OPTS biochemical assay, Notum (81–451C330S); settings: for IC50 / Notum IC50: >10 = 20–50% inhibition @ 10 μM; for IC50: read-out: Notum IC50; for fold decrease in Notum inhibition compared to 3a: weaker
# T1 construct: high-throughput biochemical assay with Notum (81–451C330S) and OPTS as a synthetic fluorescent substrate; made in house
# T1 sequence (Q6P988 81-451 C330S): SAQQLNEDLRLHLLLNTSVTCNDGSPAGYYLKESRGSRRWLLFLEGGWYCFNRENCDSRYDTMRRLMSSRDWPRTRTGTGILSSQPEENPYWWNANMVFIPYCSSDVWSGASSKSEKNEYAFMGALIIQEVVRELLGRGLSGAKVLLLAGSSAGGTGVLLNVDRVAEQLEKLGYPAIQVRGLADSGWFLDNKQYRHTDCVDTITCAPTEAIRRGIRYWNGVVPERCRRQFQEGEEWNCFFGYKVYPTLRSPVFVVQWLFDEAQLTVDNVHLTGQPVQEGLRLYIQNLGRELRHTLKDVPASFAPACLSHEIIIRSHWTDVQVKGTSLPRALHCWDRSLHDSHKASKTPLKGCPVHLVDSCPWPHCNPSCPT
# Protocol: Notum inhibitors 3–5 (Table 1, Table 2, Table 3, Table 4) were either purchased or prepared using established synthetic methods from readily available starting materials (Scheme 1). Where necessary, the synthesis of many of these amines (e.g. 6) have been reported previously and full details of their preparation have been included in the Experimental Section. Notum inhibition activity was determined using the standard Notum-OPTS biochemical assay using IC50 values. These values were used to compare relative activities with covalent inhibitors under carefully regulated assay conditions. […] Selected inhibitors were screened for inhibition of Notum activity in a TCF/LEF Reporter (Luciferase) cell line with exogenous WNT3a and Notum, and soaked into Notum crystals to determine their binding modes and evidence of MoA.
# Methods have been described in detail.
# [2] = Stability in mouse liver microsomes; assay type: in vitro ADME
# Protocol: Selected compounds were routinely screened for aqueous solubility in PBS (pH 7.4), transit performance in MDCK-MDR1 cell lines for permeability, and metabolic stability in MLM and HLM as a measure of clearance. The main metabolites and routes of metabolism of 4y were determined in MLM. Assay protocols and additional data are presented in the Supplementary Material (Tables S1–S7). ADME studies reported in this work were performed by WuXi AppTec (Shanghai, China).
# Representative assay protocols have been described in detail. ^1,2
# [3] = Table 2, mean ± s.d. of n = 4–12
# [4] = mouse, read-out: MLM Stability t1/2
# [5] = Table 1, mean ± s.d. of n = 2–6, inactive = <20% inhibition @ 10 μM, 2a covalent, IC50 time-dependant
# [6] = Table 4, mean ± s.d. of n = 4–8
compound,measurement,setting,value
"CC(=O)N1CCc2cc(F)ccc21 [Compound 4s, 1-(5-Fluoroindolin-1-yl)ethan-1-one]",IC50,[1]; [3],0.35 ± 0.04 µM
"CC(=O)N1CC(C)(C)c2ccccc21 [Compound 4c, 1-(3,3-Dimethylindolin-1-yl)ethan-1-one]",IC50,[1]; [3],1.4 ± 0.4 µM
"CC(=O)N1CCc2c(F)cccc21 [Compound 4m, 1-(4-Fluoroindolin-1-yl)ethan-1-one]",IC50,[1]; [3],0.093 ± 0.002 µM
"CC(=O)N1CC2(CC2)c2c1cccc2C(F)(F)F [Compound 4aa, 1-(4'-(Trifluoromethyl)spiro[cyclopropane-1,3′-indolin]-1′-yl)ethan-1-one]",IC50,[1]; [3],0.017 ± 0.002 µM
same,MLM Stability Cli,[2],670 µL/min/mg protein
same,half-life,[2]; [4],2 min
"CC(=O)N1CCc2cc(Cl)ccc21 [Compound 4h, 1-(5-Chloroindolin-1-yl)ethan-1-one]",IC50,[1]; [3],0.095 ± 0.014 µM
"O=C1CCCN1c1ccccc1 [Compound 3g, 1-Phenylpyrrolidin-2-one]",IC50,[1]; [5],> 10 µM
"CC(=O)N1CCOc2ccccc21 [Compound 3m, 1-(2,3-Dihydro-4H-benzo[b][1,4]oxazin-4-yl)ethan-1-one]",IC50,[1]; [5],2.8 ± 1.8 µM
"CC(=O)N1CC2(CCC2)c2ccccc21 [Compound 4e, 1-(Spiro[cyclobutane-1,3′-indolin]-1′-yl)ethan-1-one]",IC50,[1]; [3],1.8 ± 1.2 µM
"O=C1COCC2Cc3ccccc3N12 (centres unmarked) [Compound 5i, 10,10a-Dihydro-1H-[1,4]oxazino[4,3-a]indol-4(3H)-one]",IC50,[1]; [6],1.6 to 10 µM
"CC(=O)N1CCc2ccc(Cl)c(Cl)c21 [Compound 4x, 1-(6,7-Dichloroindolin-1-yl)ethan-1-one]",IC50,[1]; [3],2.2 ± 0.6 µM
"COc1cccc2c1CCN2C(C)=O [Compound 4n, 1-(4-Methoxyindolin-1-yl)ethan-1-one]",IC50,[1]; [3],0.67 ± 0.07 µM
"CC(=O)N1CCc2c(C#N)cccc21 [Compound 4l, 1-Acetylindoline-4-carbonitrile]",IC50,[1]; [3],1.5 ± 0.2 µM
"CC(=O)N1CCc2cc(C(F)(F)F)ccc21 [Compound 4u, 1-(5-(Trifluoromethyl)indolin-1-yl)ethan-1-one]",IC50,[1]; [3],0.52 ± 0.05 µM
"CC(=O)n1ncc2ccccc21 [Compound 3k, 1-(1H-Indazol-1-yl)ethan-1-one]",IC50,[1]; [5],> 10 µM
"CC(=O)N1CCc2cc(C#N)ccc21 [Compound 4r, 1-Acetylindoline-5-carbonitrile]",IC50,[1]; [3],> 10 µM
"CC(=O)n1ccc2ccccc21 [Compound 3b, 1-(1H-Indol-1-yl)ethan-1-one]",IC50,[1]; [5],5.3 ± 1.2 µM
same,fold decrease in Notum inhibition compared to 3a,[1]; vs 3a,10 fold
"CC(=O)N1CC2(CC2)c2cc(Cl)ccc21 [Compound 4z, 1-(5′-Chlorospiro[cyclopropane-1,3′-indolin]-1′-yl)ethan-1-one]",IC50,[1]; [3],0.034 ± 0.01 µM
same,MLM Stability Cli,[2],620 µL/min/mg protein
same,half-life,[2]; [4],2.2 min
"Clc1ccc2c(c1Cl)CCN2 [Compound 5n, 4,5-Dichloroindoline]",IC50,[1]; [6],3.6 ± 0.67 µM
"CC(=O)N1CCc2ccc(Cl)cc21 [Compound 4i, 1-(6-Chloroindolin-1-yl)ethan-1-one]",IC50,[1]; [3],1.4 ± 0.2 µM
"O=C1CCC2Cc3c(Cl)cccc3N12 (centres unmarked) [Compound 5k, 8-Chloro-1,2,9,9a-tetrahydro-3H-pyrrolo[1,2-a]indol-3-one]",IC50,[1]; [6],0.49 ± 0.03 µM
"CC(=O)N1c2ccccc2C2(C)CC12 (centres unmarked) [Compound 4f, 1-(6b-Methyl-1a,6b-dihydrocyclopropa[b]indol-2(1H)-yl)ethan-1-one]",IC50,[1]; [3],4.1 ± 0.8 µM
"CC(=O)N1C(=O)Cc2ccccc21 [Compound 3j, 1-Acetylindolin-2-one]",IC50,[1]; [5],3.2 ± 0.66 µM
"COc1ccc2c(c1)CCN2C(C)=O [Compound 4t, 1-(5-Methoxyindolin-1-yl)ethan-1-one]",IC50,[1]; [3],0.67 ± 0.08 µM
"CC(=O)N1CCC(c2ccccc2)C1 (centres unmarked) [Compound 3f, 1-(3-Phenylpyrrolidin-1-yl)ethan-1-one]",Notum IC50,[1]; [5],inactive ^c
"CC(=O)N1CC2(CC2)c2ccccc21 [Compound 4d, 1-(Spiro[cyclopropane-1,3′-indolin]-1′-yl)ethan-1-one]",IC50,[1]; [3],0.061 ± 0.012 µM
same,MLM Stability Cli,[2],360 µL/min/mg protein
same,half-life,[2]; [4],3.8 min
"O=C1CCC2Cc3cc(Cl)ccc3N12 (centres unmarked) [Compound 5j, 7-Chloro-1,2,9,9a-tetrahydro-3H-pyrrolo[1,2-a]indol-3-one]",IC50,[1]; [6],1.2 ± 0.4 µM
"O=C1OCC2Cc3ccccc3N12 (centres unmarked) [Compound 5h, 9,9a-Dihydro-1H,3H-oxazolo[3,4-a]indol-3-one]",IC50,[1]; [6],6.1 ± 0.7 µM
"CC(=O)N(C)c1ccccc1C [Compound 3h, N-Methyl-N-(o-tolyl)acetamide]",IC50,[1]; [5],> 10 µM
"CC(=O)N1CCS(=O)(=O)c2ccccc21 [Compound 3o, 1-(1,1-Dioxido-2,3-dihydro-4H-benzo[b][1,4]thiazin-4-yl)ethan-1-one]",IC50,[1]; [5],> 10 µM
"CC(=O)N1CCc2ccccc21 [Compound 3a, 1-(Indolin-1-yl)ethan-1-one]",IC50,[1]; [5],0.4 ± 0.11 µM
same,LE,[1]; ligand efficiency from Notum OPTS IC50,0.75
same,LLE,[1]; lipophilic ligand efficiency from Notum OPTS IC50 and clogP,5.0
same,fold more potent than 2b (Notum IC50),[1]; vs 2b,7 fold
same,MLM Stability Cli,[2],180 µL/min/mg protein
same,half-life,[2]; [4],8 min
"O=C1N2c3ccccc3CC2CC1(F)F (centres unmarked) [Compound 5m, 2,2-Difluoro-1,2,9,9a-tetrahydro-3H-pyrrolo[1,2-a]indol-3-one]",half-life at 1 h,[2]; [4],16 min
"CC(=O)n1ccc2c(Cl)cccc21 [Compound 5c, 1-(4-Chloro-1H-indol-1-yl)ethan-1-one]",IC50,[1]; [6],0.73 ± 0.04 µM
"CC12CCC(=O)N1c1ccccc1C2 (centres unmarked) [Compound 5l, 3a-Methyl-3,4-dihydro-2H-pyrrolo[1,2-a]indol-1-one]",IC50,[1]; [6],2.1 ± 0.31 µM
"CC(=O)N1CC(C)c2ccccc21 (centres unmarked) [Compound 4b, 1-(3-Methylindolin-1-yl)ethan-1-one]",IC50,[1]; [3],0.26 ± 0.08 µM
same,fold increase in Notum inhibition over 3a,"[1]; vs 3a, more potent",2 fold
"CC(=O)N1CC(=O)c2ccccc21 [Compound 3i, 1-Acetylindolin-3-one]",IC50,[1]; [5],0.69 ± 0.12 µM
"CC(=O)n1cnc2ccccc21 [Compound 3l, 1-(1H-Benzo[d]imidazole-1-yl)ethan-1-one]",Notum IC50,[1]; [5],inactive ^c
"CC(C)C(=O)N1CC2(CC2)c2c(Cl)cccc21 [Compound 5a, 1-(4′-Chlorospiro[cyclopropane-1,3′-indolin]-1′-yl)-2-methylpropan-1-one]",IC50,[1]; [6],4.4 ± 0.3 µM
"CC(=O)N1Cc2ccccc2C1 [Compound 3d, 1-(Isoindolin-2-yl)ethan-1-one]",IC50,[1]; [5],2.2 ± 0.4 µM
"CC(=O)N1CCc2c(C)cccc21 [Compound 4k, 1-(4-Methylindolin-1-yl)ethan-1-one]",IC50,[1]; [3],0.083 ± 0.016 µM
"CC(=O)N1CCOc2c(Cl)cccc21 [Compound 5e, 1-(8-Chloro-2,3-dihydro-4H-benzo[b][1,4]oxazin-4-yl)ethan-1-one]",IC50,[1]; [6],8.5 ± 2.1 µM
"CC(=O)N1CCCc2ccccc21 [Compound 3c, 1-(3,4-Dihydroquinolin-1(2H)-yl)ethan-1-one]",IC50,[1]; [5],2.5 ± 1 µM
same,fold decrease in Notum inhibition compared to 3a,[1]; vs 3a,6 fold
"CC(=O)N1CCc2c(C3CC3)cccc21 [Compound 4p, 1-(4-Cyclopropylindolin-1-yl)ethan-1-one]",IC50,[1]; [3],0.29 ± 0.14 µM
"CCN1CCc2c(Cl)cccc21 [Compound 5o, 4-Chloro-1-ethylindoline hydrochloride]",IC50,[1]; [6],> 10 µM
"CC(=O)N1CCc2cccc(Cl)c21 [Compound 4j, 1-(7-Chloroindolin-1-yl)ethan-1-one]",IC50,[1]; [3],6.4 ± 0.9 µM
"CC(=O)N1CCc2ccccc2C1 [Compound 3e, 1-(3,4-Dihydroisoquinolin-2(1H)-yl)ethan-1-one]",IC50,[1]; [5],8 ± 2.2 µM
"CC(=O)N1CCSc2ccccc21 [Compound 3n, 1-(2,3-Dihydro-4H-benzo[b][1,4]thiazin-4-yl)ethan-1-one]",IC50,[1]; [5],3.6 ± 0.1 µM
"CS(=O)(=O)N1CC2(CC2)c2c(Cl)cccc21 [Compound 5b, 4′-Chloro-1'-(methylsulfonyl)spiro[cyclopropane-1,3′-indoline]]",IC50,[1]; [6],1 ± 0.3 µM
same,MLM Stability Cli,[2],200 µL/min/mg protein
same,half-life,[2]; [4],7 min
"CC(=O)N1CCc2cc(C)ccc21 [Compound 4q, 1-(5-Methylindolin-1-yl)ethan-1-one]",IC50,[1]; [3],0.22 ± 0.02 µM
"CC(=O)N1c2ccccc2CC1C (centres unmarked) [Compound 4a, 1-(2-Methylindolin-1-yl)ethan-1-one]",IC50,[1]; [3],2.4 ± 1.2 µM
